{"source": "ChEMBL document CHEMBL5584229", "about": "“Application and challenges of nitrogen heterocycles in PROTAC linker” (Eur J Med Chem, 2024)", "key": {"[1]": {"biological_target": "T1, Protein cereblon/ALK tyrosine kinase receptor (Homo sapiens, UniProt Q9UM73+Q96SW2)", "test": "PROTAC activity at CRBN/ALK in human NCI-H3122 cells assessed as induction of ALK degradation incubated for 24 hrs by Western blot analysis", "format": "cell-based"}, "[2]": {"biological_target": "Protein cereblon/Cyclin-dependent kinase 9 (Homo sapiens) (UniProt P50750+Q96SW2)", "sequence (P50750 whole entry, looked up)": "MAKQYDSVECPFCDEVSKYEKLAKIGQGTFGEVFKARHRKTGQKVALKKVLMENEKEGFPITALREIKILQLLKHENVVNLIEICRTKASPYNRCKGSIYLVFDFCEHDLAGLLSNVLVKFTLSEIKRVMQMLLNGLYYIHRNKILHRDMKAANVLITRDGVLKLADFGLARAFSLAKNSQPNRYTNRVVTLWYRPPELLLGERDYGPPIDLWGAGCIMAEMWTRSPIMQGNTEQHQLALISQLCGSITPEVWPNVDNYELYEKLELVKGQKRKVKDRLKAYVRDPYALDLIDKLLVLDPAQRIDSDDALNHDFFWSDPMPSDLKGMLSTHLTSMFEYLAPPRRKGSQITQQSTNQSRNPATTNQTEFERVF", "sequence (Q96SW2 whole entry, looked up)": "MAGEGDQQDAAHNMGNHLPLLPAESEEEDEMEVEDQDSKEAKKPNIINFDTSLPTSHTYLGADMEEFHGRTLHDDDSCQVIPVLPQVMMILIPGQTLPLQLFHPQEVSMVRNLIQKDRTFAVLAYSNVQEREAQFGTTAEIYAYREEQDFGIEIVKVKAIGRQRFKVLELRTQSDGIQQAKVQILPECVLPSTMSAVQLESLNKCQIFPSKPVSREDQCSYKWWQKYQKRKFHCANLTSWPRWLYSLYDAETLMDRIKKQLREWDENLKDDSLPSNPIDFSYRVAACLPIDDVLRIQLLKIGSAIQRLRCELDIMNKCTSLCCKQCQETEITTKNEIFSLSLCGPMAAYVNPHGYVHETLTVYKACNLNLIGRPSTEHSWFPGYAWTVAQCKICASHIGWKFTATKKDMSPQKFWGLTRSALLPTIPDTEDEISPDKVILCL", "test": "Protac activity at CRBN/CDK9 in human HeLa cells assessed as […] at 1 uM measured after 6 hrs by Western blot analysis", "format": "cell-based"}, "[3]": {"biological_target": "Von Hippel-Lindau disease tumor suppressor/Elongin B/Elongin C (Homo sapiens, UniProt P40337)", "sequence (P40337 whole entry, looked up, the tested form may be a part)": "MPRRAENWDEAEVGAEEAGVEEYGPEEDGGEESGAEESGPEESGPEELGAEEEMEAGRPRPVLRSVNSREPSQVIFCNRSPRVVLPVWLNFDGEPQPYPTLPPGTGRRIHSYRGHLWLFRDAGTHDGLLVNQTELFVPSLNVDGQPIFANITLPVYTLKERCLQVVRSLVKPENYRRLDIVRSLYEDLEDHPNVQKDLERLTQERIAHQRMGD", "test": "Inhibition of 6xHis-tagged VHL (1 to 213 residues)/Elongin B/Elogin C (unknown origin) expressed in Escherichia coli BL21 cells by fluorescence polarization assay"}, "[4]": {"biological_target": "Protein cereblon/Androgen receptor (Homo sapiens, UniProt P10275+Q96SW2)", "test": "PROTAC activity at AR/CRBN in human A549 cells assessed as induction of androgen receptor degradation measured after 1 hr by Western blot analysis", "format": "cell-based"}, "[5]": {"biological_target": "T2, von Hippel-Lindau disease tumor suppressor/Mitogen-activated protein kinase 14 (Homo sapiens, UniProt Q16539+P40337)", "T2 sequence (Q16539 whole entry)": "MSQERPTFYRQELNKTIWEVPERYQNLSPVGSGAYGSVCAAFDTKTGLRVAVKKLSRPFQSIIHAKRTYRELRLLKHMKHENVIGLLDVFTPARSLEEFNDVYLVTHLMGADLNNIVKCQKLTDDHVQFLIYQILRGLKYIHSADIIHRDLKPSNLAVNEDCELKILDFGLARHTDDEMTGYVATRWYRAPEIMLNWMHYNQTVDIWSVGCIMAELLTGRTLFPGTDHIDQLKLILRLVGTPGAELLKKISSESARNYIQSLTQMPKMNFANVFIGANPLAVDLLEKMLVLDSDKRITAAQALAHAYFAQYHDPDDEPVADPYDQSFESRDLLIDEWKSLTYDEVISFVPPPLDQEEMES", "T2 sequence (P40337 whole entry)": "as the sequence (P40337 whole entry, looked up, the tested form may be a part) above", "test": "PROTAC activity at VHL/N-terminal His-tagged human p38alpha in T47D cells assessed as p38alpha degradation", "format": "cell-based"}, "[6]": {"biological_target": "T2, von Hippel-Lindau disease tumor suppressor/Mitogen-activated protein kinase 14", "test": "PROTAC activity at VHL/N-terminal His-tagged human p38alpha in MDA-MB-231 cells assessed as p38alpha degradation", "format": "cell-based"}, "[7]": {"biological_target": "E3 ubiquitin-protein ligase Mdm2/Histone deacetylase 1 (Homo sapiens) (UniProt Q00987+Q13547)", "sequence (Q00987 whole entry, looked up)": "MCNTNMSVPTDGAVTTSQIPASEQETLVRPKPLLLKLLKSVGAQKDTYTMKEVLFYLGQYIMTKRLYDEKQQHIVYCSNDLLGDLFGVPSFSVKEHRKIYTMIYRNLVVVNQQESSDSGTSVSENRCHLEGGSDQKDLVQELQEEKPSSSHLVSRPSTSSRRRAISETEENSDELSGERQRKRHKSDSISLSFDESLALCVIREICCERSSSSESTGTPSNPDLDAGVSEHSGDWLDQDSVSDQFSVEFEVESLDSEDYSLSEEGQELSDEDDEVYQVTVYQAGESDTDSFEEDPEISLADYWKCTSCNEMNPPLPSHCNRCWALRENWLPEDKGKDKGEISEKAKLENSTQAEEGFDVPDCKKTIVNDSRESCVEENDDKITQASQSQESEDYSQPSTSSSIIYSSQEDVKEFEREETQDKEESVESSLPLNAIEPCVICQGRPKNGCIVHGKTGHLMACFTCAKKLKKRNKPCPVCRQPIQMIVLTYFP", "sequence (Q13547 whole entry, looked up)": "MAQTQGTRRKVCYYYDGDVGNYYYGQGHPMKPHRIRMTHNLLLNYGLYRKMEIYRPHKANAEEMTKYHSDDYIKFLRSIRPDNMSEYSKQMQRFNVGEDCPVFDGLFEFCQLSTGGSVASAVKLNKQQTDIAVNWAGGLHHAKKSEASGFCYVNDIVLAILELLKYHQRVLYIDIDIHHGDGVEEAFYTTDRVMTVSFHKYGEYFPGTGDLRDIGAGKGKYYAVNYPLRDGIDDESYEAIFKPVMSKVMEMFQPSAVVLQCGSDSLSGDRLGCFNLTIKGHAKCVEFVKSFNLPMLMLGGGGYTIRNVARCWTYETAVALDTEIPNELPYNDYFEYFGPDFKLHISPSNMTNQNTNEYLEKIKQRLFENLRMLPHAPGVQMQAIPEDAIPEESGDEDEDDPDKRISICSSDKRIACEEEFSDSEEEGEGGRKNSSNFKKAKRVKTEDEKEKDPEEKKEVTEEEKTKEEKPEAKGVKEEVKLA", "test": "PROTAC activity at MDM2/HDAC1 in human HCT-116 cells assessed as induction of HDAC1 degradation at 10 uM by Western blot analysis relative to control", "format": "cell-based"}, "A549": {"tested_on": "A549", "test": "Cytotoxicity against human A549 cells assessed as reduction in cell growth incubated for 5 days by MTT assay", "format": "functional, cell-based", "settings": "A549, 120 h"}, "HeLa": {"tested_on": "HeLa", "test": "Antiproliferative activity against human HeLa cells assessed as reduction in cell viability incubated for 24 hrs by MTT assay", "format": "functional, cell-based"}, "[8]": {"biological_target": "T1, Protein cereblon/ALK tyrosine kinase receptor", "test": "PROTAC activity at CRBN/ALK in human NCI-H3122 cells assessed as induction of ALK degradation by measuring maximal degradation at […] incubated for 24 hrs by Western blot analysis", "format": "cell-based"}, "[9]": {"tested_on": "von Hippel-Lindau disease tumor suppressor/Epidermal growth factor receptor (Homo sapiens), P00533+P40337 [UNDEFINED MUTATION]", "sequence (P00533 whole entry, looked up, stated change not applied)": "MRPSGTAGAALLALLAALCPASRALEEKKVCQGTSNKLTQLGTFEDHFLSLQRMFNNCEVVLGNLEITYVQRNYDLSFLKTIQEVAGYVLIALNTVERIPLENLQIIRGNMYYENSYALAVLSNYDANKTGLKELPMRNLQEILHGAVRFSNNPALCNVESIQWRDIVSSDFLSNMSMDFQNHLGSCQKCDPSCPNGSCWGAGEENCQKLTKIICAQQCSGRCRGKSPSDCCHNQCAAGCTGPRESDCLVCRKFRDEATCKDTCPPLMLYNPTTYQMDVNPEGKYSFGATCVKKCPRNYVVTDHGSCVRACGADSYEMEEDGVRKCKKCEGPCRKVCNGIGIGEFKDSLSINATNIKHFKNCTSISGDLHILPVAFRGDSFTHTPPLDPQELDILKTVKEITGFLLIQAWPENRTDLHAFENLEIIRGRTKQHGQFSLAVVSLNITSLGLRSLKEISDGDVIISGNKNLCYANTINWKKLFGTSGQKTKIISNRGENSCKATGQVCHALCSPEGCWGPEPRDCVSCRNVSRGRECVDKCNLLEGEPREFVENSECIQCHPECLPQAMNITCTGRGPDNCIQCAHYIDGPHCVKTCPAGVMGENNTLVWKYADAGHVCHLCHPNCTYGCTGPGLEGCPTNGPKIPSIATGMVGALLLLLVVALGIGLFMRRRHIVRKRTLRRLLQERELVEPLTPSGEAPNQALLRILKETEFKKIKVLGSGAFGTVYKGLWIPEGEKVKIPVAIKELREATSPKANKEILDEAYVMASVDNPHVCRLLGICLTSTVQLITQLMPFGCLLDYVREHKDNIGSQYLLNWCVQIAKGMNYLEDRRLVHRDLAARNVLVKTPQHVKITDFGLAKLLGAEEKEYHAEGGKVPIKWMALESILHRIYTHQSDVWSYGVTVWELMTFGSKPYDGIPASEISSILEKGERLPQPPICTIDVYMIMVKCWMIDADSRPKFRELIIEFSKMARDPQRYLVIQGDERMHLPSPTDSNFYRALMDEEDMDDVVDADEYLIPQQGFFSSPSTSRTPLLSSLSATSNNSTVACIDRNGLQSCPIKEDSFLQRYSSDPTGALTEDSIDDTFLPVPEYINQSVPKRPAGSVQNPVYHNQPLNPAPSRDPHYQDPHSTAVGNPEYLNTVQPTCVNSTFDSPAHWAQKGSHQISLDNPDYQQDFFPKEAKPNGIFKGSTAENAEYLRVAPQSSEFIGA", "sequence (P40337 whole entry, looked up, stated change not applied)": "as the sequence (P40337 whole entry, looked up, the tested form may be a part) above", "test": "PROTAC activity at VHL/EGFR del19 mutant in human HCC827 cells assessed as maximal degradation incubated for 24 hrs by immunoblot analysis relative to control", "format": "cell-based"}, "[10]": {"biological_target": "T3, Protein cereblon/Receptor-type tyrosine-protein kinase FLT3 (Homo sapiens, UniProt P36888+Q96SW2)", "T3 sequence (P36888 whole entry, looked up, change not shown)": "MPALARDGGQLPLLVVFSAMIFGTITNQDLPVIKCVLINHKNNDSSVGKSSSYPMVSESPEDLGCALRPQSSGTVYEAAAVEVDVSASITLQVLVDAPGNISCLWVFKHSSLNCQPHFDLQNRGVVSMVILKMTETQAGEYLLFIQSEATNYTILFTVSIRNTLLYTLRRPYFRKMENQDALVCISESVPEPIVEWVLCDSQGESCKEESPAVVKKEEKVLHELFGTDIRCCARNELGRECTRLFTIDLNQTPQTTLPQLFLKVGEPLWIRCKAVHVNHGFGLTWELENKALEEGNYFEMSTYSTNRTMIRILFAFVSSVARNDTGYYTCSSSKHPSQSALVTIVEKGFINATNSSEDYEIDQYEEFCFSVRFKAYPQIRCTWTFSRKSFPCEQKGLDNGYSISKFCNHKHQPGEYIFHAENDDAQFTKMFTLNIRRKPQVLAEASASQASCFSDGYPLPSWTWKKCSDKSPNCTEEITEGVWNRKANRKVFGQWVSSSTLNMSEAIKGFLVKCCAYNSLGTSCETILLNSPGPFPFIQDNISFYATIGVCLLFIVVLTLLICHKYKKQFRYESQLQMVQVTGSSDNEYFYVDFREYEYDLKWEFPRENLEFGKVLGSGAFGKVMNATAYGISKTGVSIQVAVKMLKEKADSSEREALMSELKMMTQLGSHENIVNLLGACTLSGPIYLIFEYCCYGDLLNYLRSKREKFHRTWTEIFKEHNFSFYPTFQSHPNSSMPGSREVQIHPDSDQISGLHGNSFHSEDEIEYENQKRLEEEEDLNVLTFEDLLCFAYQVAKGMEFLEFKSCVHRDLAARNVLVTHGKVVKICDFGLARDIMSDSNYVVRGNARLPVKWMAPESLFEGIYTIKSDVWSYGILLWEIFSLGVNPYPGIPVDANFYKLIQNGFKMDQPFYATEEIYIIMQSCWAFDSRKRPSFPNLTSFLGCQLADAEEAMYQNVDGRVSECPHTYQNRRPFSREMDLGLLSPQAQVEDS", "T3 sequence (Q96SW2 whole entry, looked up, change not shown)": "as the sequence (Q96SW2 whole entry, looked up) above", "test": "PROTAC activity at CRBN/FLT3 in human MV4-11 cells harboring FLT3-ITD mutation assessed as induction of FLT3 degradation incubated for 24 hrs by immunoblotting analysis", "format": "cell-based"}, "[11]": {"biological_target": "T3, Protein cereblon/Receptor-type tyrosine-protein kinase FLT3", "test": "PROTAC activity at CRBN/FLT3-ITD mutant in human MV4-11 cells assessed as protein degradation by Western blot analysis", "format": "cell-based"}, "[12]": {"test": "AUC (0 to t) in ICR mouse at 2 mg/kg, iv", "format": "ADME, organism-based", "settings": "in vivo"}}}
{"smiles": "N#Cc1cccc(-c2ccc(=O)n(Cc3cccc(-c4ncc(OCC5CCN(CC(=O)N6CCN(CCNc7ccc8c(c7)C(=O)N(C7CCC(=O)NC7=O)C8=O)CC6)CC5)cn4)c3)n2)c1", "note": "(configuration not stated)", "values": [{"measurement": "DC50", "setting": "[1]", "value": 0.6, "unit": "nM"}]}
{"smiles": "O=C1CCC(N2C(=O)c3cccc(NC(=O)CCCCCCCn4cc(COc5c(O)cc(O)c6c(=O)cc(-c7ccccc7)oc56)nn4)c3C2=O)C(=O)N1", "note": "(configuration not stated)", "values": [{"measurement": "Emax", "setting": "[2]", "value": 61.2, "unit": "%"}]}
{"smiles": "CCCS(=O)(=O)Nc1ccc(F)c(C(=O)c2c[nH]c3ncc(-c4ccc(N5CCN(CC(=O)N[C@H](C(=O)N6C[C@H](O)C[C@H]6C(=O)NCc6ccc(-c7scnc7C)cc6)C(C)(C)C)CC5)cc4)cc23)c1F", "values": [{"measurement": "IC50", "setting": "[3]", "value": 6.8, "unit": "nM"}]}
{"smiles": "CC1(C)C(=O)N(c2ccc(C#N)c(C(F)(F)F)c2)C(=S)N1c1ccc(-c2ccc(O[C@@H]3CCN(C(=O)C4CCN(c5ccc6c(c5)C(=O)N(C5CCC(=O)NC5=O)C6=O)CC4)C3)cc2)cc1", "note": "(some centres not stated)", "values": [{"measurement": "DC50", "setting": "[4]", "value": 75, "unit": "nM"}]}
{"smiles": "N#Cc1cccc(-c2ccc(=O)n(Cc3cccc(-c4ncc(OCC5CCN(CC(=O)N6CCN(c7ccc8c(c7)C(=O)N(C7CCC(=O)NC7=O)C8=O)CC6)CC5)cn4)c3)n2)c1", "note": "(configuration not stated)", "values": [{"measurement": "DC50", "setting": "[1]", "value": 0.35, "unit": "nM"}]}
{"smiles": "C=C1c2cccc(NCCCCCCNC(=O)CCCn3cc(CCCCNC(=O)c4ccc(C)c(-n5c(C)cc(OCc6ccc(F)cc6F)c(Br)c5=O)c4)nn3)c2C(=O)N1C1CCC(=O)NC1=O", "note": "(configuration not stated)", "values": [{"measurement": "DC50", "setting": "[5]", "value": 2.9, "unit": "nM"}, {"measurement": "DC50", "setting": "[6]", "value": 18.4, "unit": "nM"}]}
{"smiles": "COC(C)(C)CCC[C@@](C)(O)[C@H]1CC[C@]2(C)[C@@H]1[C@H](O)C[C@@H]1[C@@]3(C)CC[C@H](OCC(=O)N4CCC(CN5CCN(c6ccc7c(c6)CN(C6CCC(=O)NC6=O)C7=O)CC5)CC4)C(C)(C)[C@@H]3CC[C@]12C", "note": "(some centres not stated)", "values": [{"measurement": "Emax", "setting": "[7]", "value": 65.4, "unit": "%"}, {"measurement": "IC50", "setting": "A549", "value": 2160, "unit": "nM"}]}
{"smiles": "CC1(NCc2cn(CCOCCOCCOCCOCCNc3cccc4c3C(=O)N(C3CCC(=O)NC3=O)C4=O)nn2)CCN(c2cnc(-c3cccc(Cl)c3Cl)c(N)n2)CC1", "note": "(configuration not stated)", "values": [{"measurement": "IC50", "setting": "HeLa", "value": 4300, "unit": "nM"}]}
{"smiles": "N#Cc1cccc(-c2ccc(=O)n(Cc3cccc(-c4ncc(OCC5CCN(CC(=O)NCCOCNc6ccc7c(c6)C(=O)N(C6CCC(=O)NC6=O)C7=O)CC5)cn4)c3)n2)c1", "note": "(configuration not stated)", "values": [{"measurement": "DC50", "setting": "[1]", "value": 0.77, "unit": "nM"}, {"measurement": "Emax", "setting": "[8]", "value": "> 99", "unit": "%"}]}
{"smiles": "Cc1ccc(C(=O)NCCCc2cn(CCCC(=O)NCCCCCC(=O)N[C@H](C(=O)N3C[C@H](O)C[C@H]3C(=O)N[C@@H](C)c3ccc(-c4scnc4C)cc3)C(C)(C)C)nn2)cc1-n1c(C)cc(OCc2ccc(F)cc2F)c(Br)c1=O", "values": [{"measurement": "DC50", "setting": "[6]", "value": 11.6, "unit": "nM"}]}
{"smiles": "Cc1ncsc1-c1ccc(CNC(=O)[C@@H]2C[C@@H](O)CN2C(=O)[C@@H](NC(=O)CCCCCCCCCCn2cc(COc3cc4ncnc(Nc5ccc(F)c(Cl)c5)c4cc3NC(=O)/C=C/CN3CCCCC3)nn2)C(C)(C)C)cc1", "values": [{"measurement": "Emax", "setting": "[9]", "value": 91, "unit": "%"}]}
{"smiles": "CC(C)(C)c1cc(NC(=O)Nc2ccc(-c3cn(CCCCc4cn(CCCCC(=O)Nc5cccc6c5CN(C5CCC(=O)NC5=O)C6=O)nn4)c4ncnc(N)c34)cc2)no1", "note": "(configuration not stated)", "values": [{"measurement": "DC50", "setting": "[10]", "value": 7850, "unit": "nM"}, {"measurement": "DC50", "setting": "[11]", "value": 76.7, "unit": "nM"}]}
{"smiles": "NC(=O)c1cccc2cn(-c3ccc(C4CCCN(CCC5CCN(CCC6CCN(c7ccc8c(c7)C(=O)N(C7CCC(=O)NC7=O)C8=O)CC6)CC5)C4)cc3)nc12", "note": "(configuration not stated)", "values": [{"measurement": "AUC(0-t)", "setting": "[12]", "value": 24500, "unit": "ng·h/mL"}]}
